Measurements taken from US8530491B2, “Antimalarial compounds with flexible side-chains” (Medicines for Malaria Venture (MMV), priority 2007, dated 2013).
Values after ≈ are worked out from the molar mass of the structure shown.

How the values were obtained:
[1] = Cytotoxicity in mammalian cells; type: cell-based; details: African green monkey, Vero cells (African green monkey kidney epithelial cells)
Pf DHFR C59R + S108N = biological target: T1, Pf DHFR C59R + S108N (Plasmodium falciparum, UniProt A7UD81, C59R/S108N); assay: biochemical
T1 construct: made in house; host or cells: E. coli BL21(DE3)pLysS

[2] = Oral bioavailability and pharmacokinetics in male Sprague Dawley rats; type: in vivo; details: for Oral BA: i.v. and oral dosing; for Vd: intravenous; for clearance: read-out: i.v. CL(plasma)
Description: Rats had free access to water throughout the pre- and post-dose sampling period, and access to food was re-instated 4 hours post-dosing. Test compounds were administered intravenously as a 5 minute constant rate infusion (1.0 mL per rat) and orally by gavage (1.0 mL per rat). The IV formulations were typically buffered aqueous solutions containing a co-solvent if required for solubilization. The oral formulations were prepared as suspensions in hydroxypropylmethyl cellulose or carboxymethyl cellulose, each with the addition of Tween 80 and benzyl alcohol. Samples of arterial blood and total urine were collected up to 24 hours post-dose. Arterial blood was collected directly into borosilicate vials (at 4° C.) containing heparin, a protease inhibitor cocktail, potassium fluoride, and EDTA to minimise the potential for ex vivo degradation of the test compound in blood/plasma samples. Once collected, blood samples were centrifuged, supernatant plasma was removed and stored at −20° C., and plasma concentrations of test compound were determined by LCMS.

[3] = biological target: T2, Pf DHFR N51I + C59R + S108N + I164L (Plasmodium falciparum, UniProt A7UD81, C59R/I164L/N51I/S108N); assay: biochemical
T2 construct: made in house; host or cells: E. coli BL21(DE3)pLysS

S. aureus = assay: Antibacterial activity, minimal inhibitory concentration on agar plates; type: cell-based; details: Staphylococcus aureus; complete inhibition of growth on agar plates
[4] = biological target: T3, Pf DHFR N51I + C59R + S108N (Plasmodium falciparum, UniProt A7UD81, C59R/N51I/S108N); assay: biochemical
T3 construct: made in house; host or cells: E. coli BL21(DE3)pLysS

E. coli = assay: Antibacterial activity, minimal inhibitory concentration on agar plates; type: cell-based; details: Escherichia coli; complete inhibition of growth on agar plates
P. chabaudi AS = assay: Standard 4-day Peters' test against P. chabaudi AS in mice; type: in vivo, Plasmodium chabaudi; details: Plasmodium chabaudi, 96 h, oral, 4-day Peters' test; for ED50: 50% reduction in parasitaemia; for ED90: 90% reduction in parasitaemia
Description: (§1) Briefly, 20 gr CD1 male mice (Charles Rivers, UK) were kept in specific pathogen-free conditions and fed ad libitum. For oral administration, compounds were dissolved in standard suspending formula (SSV) [0.5% sodium carboxymethylcellulose, 0.5% benzyl alcohol, 0.4% Tween 80, 0.9% NaCl (all Sigma)] and for intraperitoneal or subcutaneous administration compounds were dissolved in 0.5% w/v hydroxypropylmethylcellulose, 0.4% v/v Tween 80, 0.5% V/v benzyl alcohol in de-ionised water]. Mice were infected intravenously with 4×10^6 infected red cells and treated orally (p.o.) with 0.2 ml of a solution of the test compounds two hours (day 0) and on days 1, 2 and 3 post-infection. Parasitaemia was determined by microscopic examination of Giemsa stained blood films taken on day 4. Microscopic counts of blood films from each mouse were processed using GraphPad Prism 4 (GraphPad Software, Inc., CA, USA) and expressed as percentages of inhibition from the arithmetic mean parasitaemias of each group in relation to the untreated group. Compounds were tested in an initial screening at 30 mg/kg/day against P. chabaudi AS (non-resistant) over the period described and percentages of inhibition calculated in relation to the untreated controls. Compounds giving 80% inhibition or above were then tested in the same model under a range of doses over the period described in order to obtain dose response curves and calculate their ED50 and ED90 values. […] From the ED90 values is clear that a number of compounds have exquisite activity in this model and are also tested in P. chabaudi ASP and P. berghei ANKA.

Pf DHFR WT = biological target: T4, Pf DHFR WT (Plasmodium falciparum, UniProt A7UD81); assay: Pf DHFR enzyme inhibition (Ki), wild type; type: biochemical
T4 construct: made in house; host or cells: E. coli BL21(DE3)pLysS

[5] = biological target: T5, Pf DHFR C59R + S108N + I164L (Plasmodium falciparum, UniProt A7UD81, C59R/I164L/S108N); assay: biochemical
T5 construct: made in house; host or cells: E. coli BL21(DE3)pLysS

[6] = system: P. falciparum TM4/8.2 (wild type); assay: In vitro anti-plasmodial activity, [3H]-hypoxanthine incorporation; type: cell-based, Plasmodium falciparum; details: Plasmodium falciparum, read-out: IC50-P. falciparum TM4/8.2 (WT), TM4/8.2
P. chabaudi ASP = assay: Standard 4-day Peters' test against P. chabaudi ASP (pyrimethamine-resistant) in mice; type: in vivo, Plasmodium chabaudi
Description: as §1

P. berghei ANKA = assay: Standard 4-day Peters' test against P. berghei ANKA in mice; type: in vivo, Plasmodium berghei; details: oral, lethal non-resistant strain
Description: as §1

T4 sequence (A7UD81 1-608): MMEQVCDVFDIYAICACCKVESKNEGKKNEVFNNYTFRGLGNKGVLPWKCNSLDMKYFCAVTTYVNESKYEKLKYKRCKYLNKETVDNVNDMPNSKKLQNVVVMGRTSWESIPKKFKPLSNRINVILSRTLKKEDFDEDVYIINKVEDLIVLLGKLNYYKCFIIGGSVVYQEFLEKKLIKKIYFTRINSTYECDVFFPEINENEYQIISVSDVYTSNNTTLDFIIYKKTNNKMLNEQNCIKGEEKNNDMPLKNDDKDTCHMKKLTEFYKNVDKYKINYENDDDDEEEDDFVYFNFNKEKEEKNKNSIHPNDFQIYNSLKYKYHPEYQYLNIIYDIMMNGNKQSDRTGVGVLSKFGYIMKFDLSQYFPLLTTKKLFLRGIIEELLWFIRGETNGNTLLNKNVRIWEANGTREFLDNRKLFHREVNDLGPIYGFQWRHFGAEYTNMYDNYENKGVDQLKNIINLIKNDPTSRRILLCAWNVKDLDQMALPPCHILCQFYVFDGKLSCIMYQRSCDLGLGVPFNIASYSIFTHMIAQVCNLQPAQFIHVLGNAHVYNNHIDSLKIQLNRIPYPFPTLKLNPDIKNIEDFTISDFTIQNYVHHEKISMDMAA
T1 sequence (A7UD81 whole entry C59R/S108N): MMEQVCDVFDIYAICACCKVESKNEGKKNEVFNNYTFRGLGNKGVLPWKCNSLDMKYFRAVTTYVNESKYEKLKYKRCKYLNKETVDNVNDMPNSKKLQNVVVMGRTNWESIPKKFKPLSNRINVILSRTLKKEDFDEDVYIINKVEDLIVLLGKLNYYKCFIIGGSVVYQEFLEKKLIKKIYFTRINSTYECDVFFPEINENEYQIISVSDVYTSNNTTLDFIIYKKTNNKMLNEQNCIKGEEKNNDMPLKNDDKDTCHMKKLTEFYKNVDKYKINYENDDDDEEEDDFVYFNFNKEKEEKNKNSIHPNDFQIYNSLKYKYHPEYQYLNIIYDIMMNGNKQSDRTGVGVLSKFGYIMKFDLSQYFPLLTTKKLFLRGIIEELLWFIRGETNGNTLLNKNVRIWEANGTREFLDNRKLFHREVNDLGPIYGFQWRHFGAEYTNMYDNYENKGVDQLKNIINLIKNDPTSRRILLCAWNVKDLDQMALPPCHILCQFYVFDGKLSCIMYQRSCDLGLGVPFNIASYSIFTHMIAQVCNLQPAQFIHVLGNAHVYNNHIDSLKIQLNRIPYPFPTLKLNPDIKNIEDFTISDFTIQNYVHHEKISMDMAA
T2 sequence (A7UD81 whole entry N51I/C59R/S108N/I164L): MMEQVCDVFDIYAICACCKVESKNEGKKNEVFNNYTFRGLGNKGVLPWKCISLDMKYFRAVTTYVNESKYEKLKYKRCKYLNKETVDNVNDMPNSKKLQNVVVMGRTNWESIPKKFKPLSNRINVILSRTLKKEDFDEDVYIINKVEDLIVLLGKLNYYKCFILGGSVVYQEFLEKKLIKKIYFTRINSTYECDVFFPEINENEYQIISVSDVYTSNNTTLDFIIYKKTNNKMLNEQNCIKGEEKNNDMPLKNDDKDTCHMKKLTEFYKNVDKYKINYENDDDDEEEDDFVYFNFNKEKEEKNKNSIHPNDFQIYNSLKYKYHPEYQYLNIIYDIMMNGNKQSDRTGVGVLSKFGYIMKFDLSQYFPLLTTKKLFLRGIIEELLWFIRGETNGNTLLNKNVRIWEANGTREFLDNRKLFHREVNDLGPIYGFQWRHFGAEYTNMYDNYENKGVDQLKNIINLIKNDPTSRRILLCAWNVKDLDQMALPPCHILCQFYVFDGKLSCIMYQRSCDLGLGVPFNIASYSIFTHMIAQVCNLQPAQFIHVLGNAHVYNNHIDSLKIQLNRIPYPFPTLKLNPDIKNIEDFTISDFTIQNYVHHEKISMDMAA
T5 sequence (A7UD81 whole entry C59R/S108N/I164L): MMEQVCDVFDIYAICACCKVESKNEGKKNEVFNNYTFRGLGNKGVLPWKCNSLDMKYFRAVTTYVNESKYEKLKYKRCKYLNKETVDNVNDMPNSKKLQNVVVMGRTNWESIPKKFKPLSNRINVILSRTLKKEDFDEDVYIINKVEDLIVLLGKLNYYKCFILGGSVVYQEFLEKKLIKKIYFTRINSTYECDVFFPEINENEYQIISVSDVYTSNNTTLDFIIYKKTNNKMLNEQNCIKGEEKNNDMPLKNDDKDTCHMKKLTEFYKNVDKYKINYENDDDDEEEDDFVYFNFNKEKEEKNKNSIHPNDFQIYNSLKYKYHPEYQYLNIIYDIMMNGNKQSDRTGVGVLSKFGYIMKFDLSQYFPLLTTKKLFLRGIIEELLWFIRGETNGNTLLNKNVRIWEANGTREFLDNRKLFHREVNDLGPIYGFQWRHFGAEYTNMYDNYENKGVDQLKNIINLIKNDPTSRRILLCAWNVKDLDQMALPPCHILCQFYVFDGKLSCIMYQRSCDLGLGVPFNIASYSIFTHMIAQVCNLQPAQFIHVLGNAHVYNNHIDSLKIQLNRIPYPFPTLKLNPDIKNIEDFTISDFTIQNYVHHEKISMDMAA
T3 sequence (A7UD81 whole entry N51I/C59R/S108N): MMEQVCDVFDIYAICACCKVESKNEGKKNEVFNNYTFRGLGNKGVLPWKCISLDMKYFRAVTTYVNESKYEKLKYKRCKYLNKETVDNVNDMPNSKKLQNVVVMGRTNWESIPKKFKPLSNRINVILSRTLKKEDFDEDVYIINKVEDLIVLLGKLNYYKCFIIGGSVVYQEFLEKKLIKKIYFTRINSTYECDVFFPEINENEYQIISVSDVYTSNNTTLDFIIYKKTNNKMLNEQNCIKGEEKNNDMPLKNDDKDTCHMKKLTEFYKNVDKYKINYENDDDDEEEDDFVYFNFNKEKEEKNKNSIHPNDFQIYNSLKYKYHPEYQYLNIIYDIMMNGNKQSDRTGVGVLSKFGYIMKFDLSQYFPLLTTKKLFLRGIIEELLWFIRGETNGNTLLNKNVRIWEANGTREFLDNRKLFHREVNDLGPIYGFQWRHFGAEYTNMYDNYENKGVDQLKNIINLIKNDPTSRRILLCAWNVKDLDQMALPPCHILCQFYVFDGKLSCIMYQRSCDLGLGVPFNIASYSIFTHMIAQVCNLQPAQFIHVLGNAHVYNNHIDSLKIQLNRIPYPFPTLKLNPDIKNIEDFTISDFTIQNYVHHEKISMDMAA

CCc1nc(N)nc(N)c1OCCCOc1ccccc1OCCCC(=O)O [Compound P135, 2,4-diamino-6-ethyl-5-(3-(2-(3-carboxypropoxy)phenoxy)propoxy)pyrimidine]
IC50 [1]: > 10000 nM | Ki (Pf DHFR C59R + S108N): 0.98 ± 0.003 nM | Oral BA [2]: 7.0 % of dose | Vd ([2]; rat, plasma): 1.6 L/kg | clearance ([2]; rat, plasma, iv, i.v. dosing): 49.1 mL/min/kg | Ki [3]: 3.47 ± 0.09 nM | MIC (S. aureus): > 50 µM | Ki [4]: 1.2 ± 0.05 nM | MIC (E. coli): > 50 µM | ED50 (P. chabaudi AS): 2 mg/kg | ED90 (P. chabaudi AS): 5.2 mg/kg | Ki (Pf DHFR WT): 0.72 ± 0.03 nM | Ki [5]: 2.54 ± 0.04 nM | IC50 [6]: 1.6 ± 0.6 nM

CCc1nc(N)nc(N)c1OCCCOc1ccnc2ccc(Cl)cc12 [Compound P149, 2,4-diamino-6-ethyl-5-(3-(6-chloro-quinolin-4-yloxy)propoxy)pyrimidine]
Ki (Pf DHFR C59R + S108N): 2.37 ± 0.16 nM | Oral BA [2]: 10 % of dose | Vd ([2]; rat, plasma): 51.2 L/kg | clearance ([2]; rat, plasma, iv, i.v. dosing): 66.3 mL/min/kg | half-life ([2]; rat, plasma, iv, i.v. dosing, read-out: i.v. t1/2 (converted)): 24.3 h | Ki [3]: 4.23 ± 1.06 nM | MIC (S. aureus): 1 to 10 µM (≈ 0.374 to 3.74 µg/mL) | Ki [4]: 3.4 ± 0.15 nM | MIC (E. coli): 10 to 50 µM (≈ 3.74 to 18.7 µg/mL) | ED50 (P. chabaudi AS): 0.01 mg/kg | ED90 (P. chabaudi AS): 0.02 mg/kg | Ki (Pf DHFR WT): 1.05 ± 0.18 nM | Ki [5]: 3.66 ± 0.48 nM | IC50 [6]: 3.2 ± 0.7 nM

CCc1nc(N)nc(N)c1OCCCOc1ccnc2ccccc12 [Compound P113, 2,4-diamino-6-ethyl-5-(3-(quinolin-4-yloxy)propoxy)pyrimidine]
ED50 (P. chabaudi ASP; Plasmodium chabaudi, po, read-out: ED50 P. chabaudi ASP): 0.003 mg/kg | ED90 P. chabaudi ASP (P. chabaudi ASP; oral, pyrimethamine-resistant strain): 0.01 mg/kg | IC50 [1]: 119 nM | Ki (Pf DHFR C59R + S108N): 1.86 ± 0.11 nM | Oral BA [2]: <2.0 % of dose | Ki [3]: 4.33 ± 0.28 nM | Ki [4]: 1.82 ± 0.17 nM | ED50 (P. chabaudi AS): 0.006 mg/kg | ED90 (P. chabaudi AS): 0.01 mg/kg | Ki (Pf DHFR WT): 1.21 ± 0.17 nM | ED50 (P. berghei ANKA; Plasmodium berghei): 0.01 mg/kg | ED90 P. berghei ANKA (P. berghei ANKA): 0.03 mg/kg | Ki [5]: 3.06 ± 0.21 nM | IC50 [6]: 4 ± 3 nM
